Results published in ChEMBL document CHEMBL4229455, “Synthesis and anticancer activity of novel bisindolylhydroxymaleimide derivatives with potent GSK-3 kinase inhibition” (Bioorg Med Chem, 2018).

Tests used:
NCI-H460 = assay: Cytotoxicity against human NCI-H460 cells assessed as cell growth at 10 uM after 48 hrs by SRB assay relative to control; assay type: functional; conditions: NCI-H460, 48 h, read-out: Activity
A498 = assay: Cytotoxicity against human A498 cells assessed as cell growth at 10 uM after 48 hrs by SRB assay relative to control; assay type: functional; conditions: A498, 48 h, read-out: Activity
NCI/ADR-RES = assay: Cytotoxicity against human NCI-ADR-RES cells assessed as cell growth at 10 uM after 48 hrs by SRB assay relative to control; assay type: functional; conditions: read-out: Activity
[1] = target: CDK2/Cyclin A2 (Homo sapiens) (UniProt P24941+P20248); assay: Inhibition of full length human CDK2/cyclin A assessed as residual activity at 10 uM using histone H1 as substrate in presence of [gamma-33P]ATP; assay type: protein-complex assay
CDK2/Cyclin A2 = CDK2/Cyclin A2 (Homo sapiens, UniProt P24941); assay: Inhibition of full length human CDK2/cyclin A using histone H1 as substrate in presence of [gamma-33P]ATP; assay type: protein-complex assay
HT-29 = assay: Cytotoxicity against human HT-29 cells assessed as cell growth at 10 uM after 48 hrs by SRB assay relative to control; assay type: functional; conditions: HT-29, 48 h, read-out: Activity
NCI-H522 = assay: Cytotoxicity against human NCI-H522 cells assessed as cell growth at 10 uM after 48 hrs by SRB assay relative to control; assay type: functional; conditions: NCI-H522, 48 h, read-out: Activity
SF-268 = assay: Cytotoxicity against human SF268 cells assessed as cell growth at 10 uM after 48 hrs by SRB assay relative to control; assay type: functional; conditions: SF-268, 48 h, read-out: Activity
IGROV-1 = assay: Cytotoxicity against human IGROV1 cells assessed as cell growth at 10 uM after 48 hrs by SRB assay relative to control; assay type: functional; conditions: IGROV-1, 48 h, read-out: Activity
M14 = assay: Cytotoxicity against human M14 cells assessed as cell growth at 10 uM after 48 hrs by SRB assay relative to control; assay type: functional; conditions: M14, 48 h, read-out: Activity
KM12 = assay: Cytotoxicity against human KM12 cells assessed as cell growth at 10 uM after 48 hrs by SRB assay relative to control; assay type: functional; conditions: KM12, 48 h, read-out: Activity
SN12C = assay: Cytotoxicity against human SN12C cells assessed as cell growth at 10 uM after 48 hrs by SRB assay relative to control; assay type: functional; conditions: read-out: Activity
SR = assay: Cytotoxicity against human SR cells assessed as cell growth at 10 uM after 48 hrs by SRB assay relative to control; assay type: functional; conditions: read-out: Activity
DU-145 = assay: Cytotoxicity against human DU145 cells assessed as cell growth at 10 uM after 48 hrs by SRB assay relative to control; assay type: functional; conditions: DU-145, 48 h, read-out: Activity
SF-539 = assay: Cytotoxicity against human SF539 cells assessed as cell growth at 10 uM after 48 hrs by SRB assay relative to control; assay type: functional; conditions: SF-539, 48 h, read-out: Activity
NCI-H226 = assay: Cytotoxicity against human NCI-H226 cells assessed as cell growth at 10 uM after 48 hrs by SRB assay relative to control; assay type: functional; conditions: NCI-H226, 48 h, read-out: Activity
UACC-257 = assay: Cytotoxicity against human UACC257 cells assessed as cell growth at 10 uM after 48 hrs by SRB assay relative to control; assay type: functional; conditions: UACC-257, 48 h, read-out: Activity
OVCAR-3 = assay: Cytotoxicity against human OVCAR3 cells assessed as cell growth at 10 uM after 48 hrs by SRB assay relative to control; assay type: functional; conditions: OVCAR-3, 48 h, read-out: Activity
MDA-MB-231 = assay: Cytotoxicity against human MDA-MB-231 cells assessed as cell growth at 10 uM after 48 hrs by SRB assay relative to control; assay type: functional; conditions: MDA-MB-231, 48 h, read-out: Activity
Aurora kinase B = Aurora kinase B (Homo sapiens, UniProt Q96GD4); assay: Inhibition of recombinant full length human aurora B expressed in baculovirus infected Sf9 insect cells using MBP as substrate in presence of [gamma-33P]ATP
CAKI-1 = assay: Cytotoxicity against human Caki1 cells assessed as cell growth at 10 uM after 48 hrs by SRB assay relative to control; assay type: functional; conditions: CAKI-1, 48 h, read-out: Activity
OVCAR-8 = assay: Cytotoxicity against human OVCAR8 cells assessed as cell growth at 10 uM after 48 hrs by SRB assay relative to control; assay type: functional; conditions: OVCAR-8, 48 h, read-out: Activity
EKVX = assay: Cytotoxicity against human EKVX cells assessed as cell growth at 10 uM after 48 hrs by SRB assay relative to control; assay type: functional; conditions: read-out: Activity
HOP-92 = assay: Cytotoxicity against human HOP92 cells assessed as cell growth at 10 uM after 48 hrs by SRB assay relative to control; assay type: functional; conditions: HOP-92, 48 h, read-out: Activity

Sequence of Aurora kinase B (Q96GD4 whole entry): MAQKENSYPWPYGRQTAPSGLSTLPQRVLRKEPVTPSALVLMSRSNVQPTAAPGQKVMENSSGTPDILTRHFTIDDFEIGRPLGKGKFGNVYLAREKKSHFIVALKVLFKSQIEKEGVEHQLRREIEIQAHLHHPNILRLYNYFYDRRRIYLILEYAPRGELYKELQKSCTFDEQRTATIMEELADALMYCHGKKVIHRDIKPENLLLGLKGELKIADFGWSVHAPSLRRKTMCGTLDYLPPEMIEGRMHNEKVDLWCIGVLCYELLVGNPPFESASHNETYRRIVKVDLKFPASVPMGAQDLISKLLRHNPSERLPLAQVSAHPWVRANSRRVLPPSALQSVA

Row | Compound | growth at 10 µM (NCI-H460) [%] | growth at 10 µM (A498) [%] | growth at 10 µM (NCI/ADR-RES) [%] | Activity [1] [%] | IC50 (CDK2/Cyclin A2) [µM] | growth at 10 µM (HT-29) [%] | growth at 10 µM (NCI-H522) [%] | growth at 10 µM (SF-268) [%] | growth at 10 µM (IGROV-1) [%] | growth at 10 µM (M14) [%] | growth at 10 µM (KM12) [%] | growth at 10 µM (SN12C) [%] | growth at 10 µM (DU-145) [%] | growth at 10 µM (SF-539) [%] | growth at 10 µM (NCI-H226) [%] | growth at 10 µM (OVCAR-3) [%] | growth at 10 µM (MDA-MB-231) [%] | IC50 (Aurora kinase B) [µM] | growth at 10 µM (CAKI-1) [%] | growth at 10 µM (OVCAR-8) [%] | also measured
1 | O=C(O)CCCCCn1cc(C2=C(c3c[nH]c4ccccc34)C(=O)N(O)C2=O)c2ccccc21 | 103 | 88.5 | 106 | 66 | > 10 | 101 | 88.3 | 98.3 | 93.4 | 92.9 | 95.6 | 105 | 104 | 96.3 | 92.5 | 99.3 | 92.6 | > 10 | 92.2 | 99.4 | growth at 10 µM (SR): 100%; growth at 10 µM (UACC-257): 111%
2 | CC(C)n1cc(C2=C(c3cn(C)c4ccccc34)C(=O)N(O)C2=O)c2ccccc21 | 98.3 | 99 | 92.4 | 23 | 7 | 105 | 84.7 | 97.3 | 96.2 | 94.8 | 87.4 | 95.2 | 192 | 97.6 | 77.2 | 87.6 | 70.1 | > 10 | 72.7 | 94.8 | 
3 | Cn1cc(C2=C(c3cn(CCCCCC#N)c4ccccc34)C(=O)N(O)C2=O)c2ccccc21 | 99.3 | 76.7 | 102 | 64 | > 10 | 90.1 |  | 94.9 | 93.8 | 100 | 88.2 | 102 | 106 | 98.4 | 77.8 | 93.6 | 58.9 | > 10 | 81.3 | 100 | growth at 10 µM (SR): 67.2%; growth at 10 µM (UACC-257): 110%
4 | O=C1C2=C(C(=O)N1O)c1cn(c3ccccc13)CCCCCCn1cc2c2ccccc21 | 100 | 88.3 | 108 | 89 | > 10 | 121 | 108 | 105 | 113 | 102 | 107 | 106 | 108 | 95.7 | 101 | 106 | 104 | > 10 | 95.7 | 110 | growth at 10 µM (EKVX): 103%; growth at 10 µM (SR): 91.9%; growth at 10 µM (UACC-257): 106%; growth at 10 µM (HOP-92): 79.6%
5 | Cn1cc(C2=C(c3c[nH]c4ccccc34)C(=O)N(O)C2=O)c2ccccc21 | 87.4 | 79.1 | 89.5 | 77 | > 10 | 81.5 | 56.3 | 90.4 | 83 | 81 | 81.7 | 97.8 | 100 | 95.5 | 76.9 | 84.7 | 59.5 | > 10 | 61.5 | 95.6 | growth at 10 µM (SR): 30.9%
6 | Cn1cc(C2=C(c3cn(C)c4ccccc34)C(=O)N(O)C2=O)c2ccccc21 | 99.5 | 85.8 | 102 | 83 | > 10 | 102 | 98.4 | 112 | 109 | 105 | 104 | 94.5 | 123 | 107 | 88.7 | 111 | 98 | > 10 | 90.1 | 96.5 | growth at 10 µM (SR): 75.4%; growth at 10 µM (UACC-257): 88.3%; growth at 10 µM (HOP-92): 80.8%
7 | N#CCCCCCn1cc(C2=C(c3cn(CCCCCC#N)c4ccccc34)C(=O)NC2=O)c2ccccc21 | 86.8 | 54.5 | 79 | 36 | 2.5 | 84.4 | 88.7 | 107 | 124 | 125 | 81 | 87.7 | 100 | 53.7 | 80.4 | 72.7 | 81.4 | > 10 | 82.5 | 89.9 | growth at 10 µM (EKVX): 86.5%; growth at 10 µM (UACC-257): 136%; growth at 10 µM (HOP-92): 142%
8 | CC(C)n1cc(C2=C(c3c[nH]c4ccccc34)C(=O)N(O)C2=O)c2ccccc21 | 95.3 | 93.5 | 102 | 71 | > 10 | 99.2 | 76.4 | 104 | 111 | 98.9 | 88.3 | 101 | 107 | 97.3 | 102 | 92.7 | 89.5 | > 10 | 78.3 | 107 | growth at 10 µM (SR): 85.7%
9 | Cn1cc(C2=C(c3cn(CCCCCC(=O)O)c4ccccc34)C(=O)N(O)C2=O)c2ccccc21 | 108 | 91.9 | 100 | 36 | 4 | 105 | 88.3 | 99.5 | 103 | 103 | 99.3 | 95.2 | 109 | 98.9 | 91.3 | 104 | 84.7 | > 10 | 86.8 | 87.7 | growth at 10 µM (SR): 89.6%; growth at 10 µM (UACC-257): 102%; growth at 10 µM (HOP-92): 71.8%
